{"source": "ChEMBL document CHEMBL1671662", "about": "“In vitro activities of telavancin and six comparator agents against anaerobic bacterial isolates” (2009)", "key": {"Bacteroides ovatus": {"tested_on": "Bacteroides ovatus", "assay": "Antibacterial activity against Bacteroides ovatus by CLSI M11-A6 agar dilution method in presence of beta-lactamase inhibitor Sulbactam", "format": "functional"}, "Parabacteroides merdae": {"tested_on": "Parabacteroides merdae", "assay": "Antibacterial activity against Parabacteroides merdae by CLSI M11-A6 agar dilution method in presence of beta-lactamase inhibitor Sulbactam", "format": "functional"}, "[1]": {"assay": "Antibacterial activity against Bifidobacterium infantis by CLSI M11-A6 agar dilution method in presence of beta-lactamase inhibitor Sulbactam", "format": "functional, Bifidobacterium longum subsp. infantis", "details": "Bifidobacterium longum"}, "Prevotella corporis": {"tested_on": "Prevotella corporis", "assay": "Antibacterial activity against Prevotella corporis by CLSI M11-A6 agar dilution method in presence of beta-lactamase inhibitor Sulbactam", "format": "functional"}, "[2]": {"tested_on": "Clostridium sporosphaeroides", "assay": "Antibacterial activity against Clostridium sporosphaeroides by CLSI M11-A6 agar dilution method in presence of beta-lactamase inhibitor Sulbactam", "format": "functional", "details": "Faecalispora sporosphaeroides"}, "[3]": {"tested_on": "Streptococcus intermedius", "assay": "Antibacterial activity against Streptococcus intermedius by CLSI M11-A6 agar dilution method in presence of beta-lactamase inhibitor Sulbactam", "format": "functional"}}}
{"smiles": "CC1(C)S[C@@H]2[C@H](NC(=O)[C@H](N)c3ccccc3)C(=O)N2[C@H]1C(=O)O", "note": "[AMPICILLIN]", "values": [{"measurement": "MIC50", "setting": "Bacteroides ovatus", "value": 2, "unit": "µg/mL"}, {"measurement": "MIC90", "setting": "Bacteroides ovatus", "value": 4, "unit": "µg/mL"}, {"measurement": "MIC50", "setting": "Parabacteroides merdae", "value": 8, "unit": "µg/mL"}, {"measurement": "MIC90", "setting": "Parabacteroides merdae", "value": 32, "unit": "µg/mL"}, {"measurement": "MIC50", "setting": "[1]", "value": 0.25, "unit": "µg/mL"}, {"measurement": "MIC90", "setting": "[1]", "value": 1, "unit": "µg/mL"}, {"measurement": "MIC50", "setting": "Prevotella corporis", "value": "≤ 0.12", "unit": "µg/mL"}, {"measurement": "MIC90", "setting": "Prevotella corporis", "value": 2, "unit": "µg/mL"}, {"measurement": "MIC50", "setting": "[2]", "value": 0.25, "unit": "µg/mL"}, {"measurement": "MIC90", "setting": "[2]", "value": 1, "unit": "µg/mL"}, {"measurement": "MIC50", "setting": "[3]", "value": 0.5, "unit": "µg/mL"}, {"measurement": "MIC90", "setting": "[3]", "value": 0.5, "unit": "µg/mL"}]}
